For this test, the system named is RSV strain A2. The test is described as follows: RSV antiviral cytoprotection assay in Hep2 cells (RSV-induced cytopathic effect, Cell TiterGlo). To be noted: human respiratory syncytial virus, HEp-2, 0.5 μM compound; RSV A2-infected Hep2 cells; % inhibition calculated from 4-parameter dose response curve, normalized to 0% and 100%; read-out: Percent inhibition at 0.5 μM. The format is cell-based, Respiratory Syncytial Virus (RSV). Here is the method: Antiviral activity against RSV was determined using an in vitro cytoprotection assay in Hep2 cells. […] The method used was similar to methods previously described in published literature (Chapman et al., Antimicrob Agents Chemother. 2007, 51(9):3346-53.)
Hep2 cells were obtained from ATCC (Manassas, VI) and maintained in MEM media supplemented with 10% fetal bovine serum and penicillin/streptomycin. Cells were passaged twice a week and kept at subconfluent stage. Commercial stock of RSV strain A2 (Advanced Biotechnologies, Columbia, Md.) was titered before compound testing to determine the appropriate dilution of the virus stock that generated desirable cytopathic effect in Hep2 cells.
For antiviral tests, Hep2 cells were seeded into 96-well plates 24 hours before the assay at a density of 3,000 cells/well. On a separate 96 well plate, compounds to be tested were serially diluted in cell culture media. Eight concentrations in 3-fold serial dilution increments were prepared for each tested compound and 100 uL/well of each dilution was transferred in duplicate onto plates with seeded Hep2 cells. Subsequently, appropriate dilution of virus stock previously determined by titration was prepared in cell culture media and 100 uL/well was added to test plates containing cells and serially diluted compounds. Each plate included three wells of infected untreated cells and three wells of uninfected cells that served as 0% and 100% virus inhibition control, respectively. Following the infection with RSV, testing plates were incubated for 4 days in a tissue culture incubator. After the incubation, RSV-induced cytopathic effect was determined using a Cell TiterGlo reagent (Promega, Madison, Wis.) followed by a luminescence read-out. The percentage inhibition was calculated for each tested concentration relative to the 0% and 100% inhibition controls and the EC50 value for each compound was determined by non-linear regression as a concentration inhibiting the RSV-induced cytopathic effect by 50%. Ribavirin (purchased from Sigma, St. Louis, Mo.) was used as a positive control for antiviral activity.
Compounds were also tested for antiviral activity against RSV in Hep2 cells using a 384 well format. Compounds were diluted in DMSO using a 10-step serial dilution in 3-fold increments via automation in 4 adjacent replicates each. Eight compounds were tested per dilution plate. 0.4 uL of diluted compounds were then stamped via Biomek into 384-well plates (Nunc 142761 or 164730 w/lid 264616) containing 20 μL of media (Mediatech Inc. MEM supplemented with Glutamine, 10% FBS and Pen/Strep). DMSO and a suitable positive control compound, such as 80 μM GS-329467 or 10 μM 427346 was used for the 100% and 0% cell killing controls, respectively.
Hep2 cells (1.0×10^5 cells/ml) were prepared as above in batch to at least 40 mls excess of the number of sample plates (8 mls cell mix per plate) and infected with vendor supplied (ABI) RSV strain A2 to arrive at an MOI of 1:1000 (virus:cell #) or 1:3000 (vol virus: cell vol). Immediately after addition of virus, the RSV infected Hep2 cell suspension was added to each stamped 384-well plate at 20 μl per well using a uFlow dispenser, giving a final volume of 40 μL/well, each with 2000 infected cells. The plates were then incubated for 5 days at 37° C. and 5% CO2. Following incubation, the plates were equilibrated to room temperature in a biosafety cabinet hood for 1.5 hrs and 40 μL of Cell-Titer Glo viability reagent (Promega) was added to each well via uFlow. Following a10-20 minute incubation, the plates were read using an EnVision or Victor Luminescence plate reader (Perkin-Elmer). The data was then uploaded and analyzed on the Bioinformatics portal under the RSV Cell Infectivity and 8-plate EC50-Hep2-384 or 8-plate EC50-Hep2-Envision protocols. […]

`Cc1cn2nc([C@@H]3CCCCN3C(=O)c3cccc(-c4ccccc4)n3)cc2nc1N1CC[C@H](N)C1` [Compound 80]: the inhibition (commonly the change of the read-out against control, counted positive when it falls) at 0.5 µM was 14%.

With `Cc1cn2nc([C@@H]3CCCCN3C(=O)c3cc(F)cc4c3OCOC4)cc2nc1N1C[C@@H](C#N)[C@@H](O)C1` [Compound 130], the inhibition at 0.5 µM was 100%.

`Cc1cn2nc([C@@H]3CCCCN3C(=O)c3[nH]c4c(C)ccc(C)c4c3C)cc2nc1N1CC[C@H](N)C1` [Compound 53]: the inhibition at 0.5 µM is 25%.

As to `Cc1cn2nc([C@@H]3CCCCN3C(=O)c3c(F)ccc(C)c3F)cc2nc1N1CC[C@H](N)C1` [Compound 39], the inhibition at 0.5 µM is 100%.

In the case of `Cc1cn2nc([C@@H]3CCCCN3C(=O)c3ccnn3CC(F)(F)F)cc2nc1N1C[C@@H](C#N)[C@@H](O)C1` [Compound 189], the inhibition at 0.5 µM is 89%.

For `Cc1ccc(S(C)(=O)=O)cc1C(=O)N1CCCC[C@H]1c1cc2nc(N3C[C@@H](C#N)[C@@H](O)C3)c(C)cn2n1` [Compound 138], the inhibition at 0.5 µM was 65%.

`Cc1cn2nc([C@@H]3CCCCN3C(=O)c3cccc(C)c3C)cc2nc1N1CC[C@H](N)C1` [Compound 87]: the inhibition at 0.5 µM was 100%.

`Cc1cn2nc([C@@H]3CCCCN3C(=O)c3c(Cl)c(C)nn3C)cc2nc1N1C[C@@H](C#N)[C@@H](O)C1` [Compound 182]: the inhibition at 0.5 µM was 93%.

Turning to `Cc1cn2nc([C@@H]3CCCCN3C(=O)c3cc(Cl)ccc3NS(C)(=O)=O)cc2nc1NCC(N)c1ccccc1` (stereo partly shown) [Compound 3], the inhibition at 0.5 µM was 100%.

Take `Cc1cn2nc([C@@H]3CCCCN3C(=O)c3c(C)cccc3C)cc2nc1N1CC[C@H](N)C1` [Compound 88]: the inhibition at 0.5 µM is 100%.

Take `Cc1ccc(S(N)(=O)=O)cc1C(=O)N1CCCC[C@H]1c1cc2nc(N3CC[C@H](N)C3)c(C)cn2n1` [Compound 59]: the inhibition at 0.5 µM is 52%.

As to `COc1ccc(Cl)cc1C(=O)N1CCCC[C@H]1c1cc2nc(N3C[C@@H](C#N)[C@@H](O)C3)c(C)cn2n1` [Compound 201], the inhibition at 0.5 µM is 100%.

As to `Cc1cn2nc([C@@H]3CCCCN3C(=O)c3cc(Cl)ccc3NS(C)(=O)=O)cc2nc1N[C@H]1C[C@@H](N)C1` [Compound 6], the inhibition at 0.5 µM is 100%.

Regarding `Cc1cn2nc([C@@H]3CCCCN3C(=O)c3cc(C(F)(F)F)ccn3)cc2nc1N1C[C@@H](C#N)[C@@H](O)C1` [Compound 168], the inhibition at 0.5 µM is 44%.

With `Cc1cn2nc([C@@H]3CCCCN3C(=O)c3cc(Cl)ccn3)cc2nc1N1CC[C@H](N)C1` [Compound 83], the inhibition at 0.5 µM was 99%.

`Cc1noc(-c2ccccc2C(=O)N2CCCC[C@H]2c2cc3nc(N4CC[C@H](N)C4)c(C)cn3n2)n1` [Compound 47]: the inhibition at 0.5 µM was 90%.

As for `COc1cccc(C(=O)N2CCCC[C@H]2c2cc3nc(N4CC[C@H](N)C4)c(C)cn3n2)c1C` [Compound 84], the inhibition at 0.5 µM is 100%.

Consider `COc1ccc(C(=O)N2CCCC[C@H]2c2cc3nc(N4C[C@@H](C#N)[C@@H](O)C4)c(C)cn3n2)c(F)c1` [Compound 126], for which the inhibition at 0.5 µM was 82%.

In the case of `Cc1cn2nc([C@@H]3CCCCN3C(=O)c3c(F)cccc3F)cc2nc1N1C[C@@H](C#N)[C@@H](O)C1` [Compound 157], the inhibition at 0.5 µM is 98%.

Consider `Cc1cn2nc([C@@H]3CCCCN3C(=O)c3ccccc3Cl)cc2nc1N1C[C@@H](C#N)[C@@H](O)C1` [Compound 146], for which the inhibition at 0.5 µM is 100%.

On to `Cc1cn2nc([C@@H]3CCCCN3C(=O)c3nc(Cl)ccc3Cl)cc2nc1N1CC[C@H](N)C1` [Compound 74], for which the inhibition at 0.5 µM was 100%.

In the case of `Cc1cn2nc([C@@H]3CCCCN3C(=O)c3cc(Cl)ccc3NS(C)(=O)=O)cc2nc1N[C@H]1C[C@H]2C[C@@H]1CN2` [Compound 21], the inhibition at 0.5 µM was 58%.

Take `Cc1cn2nc([C@@H]3CCCCN3C(=O)c3cc(F)c(F)c(Cl)c3F)cc2nc1N1C[C@@H](C#N)[C@@H](O)C1` [Compound 114]: the inhibition at 0.5 µM was 100%.

Regarding `Cc1cn2nc([C@@H]3CCCCN3C(=O)c3cc(Cl)cc(Cl)n3)cc2nc1N1CC[C@H](N)C1` [Compound 100], the inhibition at 0.5 µM was 100%.

Regarding `Cc1cn2nc([C@@H]3CCCCN3C(=O)c3cccc4n[nH]cc34)cc2nc1N1C[C@@H](C#N)[C@@H](O)C1` [Compound 175], the inhibition at 0.5 µM was 91%.

Regarding `CC(=O)Nc1ccc(C)cc1C(=O)N1CCCC[C@H]1c1cc2nc(N3CC(O)C(C#N)C3)c(C)cn2n1` (stereo partly shown) [Compound 203], the inhibition at 0.5 µM is 100%.

Regarding `Cc1ccc(S(C)(=O)=O)cc1C(=O)N1CCCC[C@H]1c1cc2nc(N3CC[C@H](N)C3)c(C)cn2n1` [Compound 58], the inhibition at 0.5 µM was 61%.

For `Cc1cn2nc([C@@H]3CCCCN3C(=O)c3cc(F)ccc3OC(F)(F)F)cc2nc1N1CC[C@H](N)C1` [Compound 37], the inhibition at 0.5 µM was 100%.

Regarding `Cc1cn2nc([C@@H]3CCCCN3C(=O)c3ccccc3OC3CCCC3)cc2nc1N1C[C@@H](C#N)[C@@H](O)C1` [Compound 144], the inhibition at 0.5 µM was 80%.

Regarding `CCS(=O)(=O)c1ccc(F)c(C(=O)N2CCCC[C@H]2c2cc3nc(N4CC[C@H](N)C4)c(C)cn3n2)c1` [Compound 67], the inhibition at 0.5 µM is 21%.

For `Cc1cn2nc([C@@H]3CCCCN3C(=O)c3cccc(C)c3C)cc2nc1N1C[C@@H](C#N)[C@@H](O)C1` [Compound 169], the inhibition at 0.5 µM was 100%.

Take `Cc1cn2nc([C@@H]3CCCCN3C(=O)c3cccc4n[nH]cc34)cc2nc1N1CC[C@H](N)C1` [Compound 108]: the inhibition at 0.5 µM was 99%.

Regarding `Cc1cn2nc([C@@H]3CCCCN3C(=O)c3cc(Cl)ccc3NS(C)(=O)=O)cc2nc1N1CCN[C@@H](C(C)C)C1` [Compound 22], the inhibition at 0.5 µM is 55%.

In the case of `Cc1cn2nc([C@@H]3CCCCN3C(=O)c3ncccc3Br)cc2nc1N1C[C@@H](C#N)[C@@H](O)C1` [Compound 154], the inhibition at 0.5 µM was 90%.

Regarding `Cc1noc(-c2ccccc2C(=O)N2CCCC[C@H]2c2cc3nc(N4C[C@@H](C#N)[C@@H](O)C4)c(C)cn3n2)n1` [Compound 129], the inhibition at 0.5 µM was 87%.

As to `Cc1ccc(Cl)c(C(=O)N2CCCC[C@H]2c2cc3nc(N4CC[C@H](N)C4)c(C)cn3n2)c1` [Compound 89], the inhibition at 0.5 µM was 100%.

Take `COc1ccc(C(C)(C)C)cc1C(=O)N1CCCC[C@H]1c1cc2nc(N3CC[C@H](N)C3)c(C)cn2n1` [Compound 34]: the inhibition at 0.5 µM was 13%.

On to `Cc1cn2nc([C@@H]3CCCCN3C(=O)c3cc(Cl)ccc3NS(C)(=O)=O)cc2nc1NCC(C)N` (stereo partly shown) [Compound 1], for which the inhibition at 0.5 µM is 100%.

In the case of `Cc1ccc(F)cc1C(=O)N1CCCC[C@H]1c1cc2nc(N3CC[C@H](N)C3)c(C)cn2n1` [Compound 78], the inhibition at 0.5 µM is 100%.

`Cc1cn2nc([C@@H]3CCCCN3C(=O)c3ccccc3C(F)(F)F)cc2nc1N1C[C@@H](C#N)[C@@H](O)C1` [Compound 184]: the inhibition at 0.5 µM was 100%.

For `Cc1cn2nc([C@@H]3CCCCN3C(=O)c3ncccc3F)cc2nc1N1CC[C@H](N)C1` [Compound 71], the inhibition at 0.5 µM is 98%.

Turning to `Cc1cn2nc([C@@H]3CCCCN3C(=O)c3ccc(C#N)cc3F)cc2nc1N1C[C@@H](C#N)[C@@H](O)C1` [Compound 117], the inhibition at 0.5 µM is 46%.

Turning to `Cc1cn2nc([C@@H]3CCCCN3C(=O)c3ncc(C(F)(F)F)cc3Cl)cc2nc1N1CC[C@H](N)C1` [Compound 105], the inhibition at 0.5 µM is 31%.

The values above are taken from patent publication US8946238B2, “Pyrazolo[1,5-A]pyrimidines as antiviral agents” (Gilead Sciences, Inc., priority 2011, dated 2015).
